The values that follow come from publication PMC4051630, “A Comparison of Protein Kinases Inhibitor Screening Methods Using Both Enzymatic Activity and Binding Affinity Determination” (PLoS ONE, 2014).

Assay [1] has as its target T1, FES Catalytic Domain+SH2 (Homo sapiens, UniProt P07332).
T1 construct: for 8, we also made a longer version containing one or more additional domains; His-tag; made in house; host or cells: Escherichia coli
Nature of the assay: Caliper mobility shift kinase activity assay. The class given is biochemical. As to conditions: FES CD+SH2; read-out: ATP Km.

In assay [2] the target is T2, DMPK Catalytic Domain (Homo sapiens, UniProt Q09013).
T2 construct: For all of them, we expressed and purified the catalytic domain separately; His-tag; made in house; host or cells: Escherichia coli
T2 sequence (Q09013 71-339 limits assumed): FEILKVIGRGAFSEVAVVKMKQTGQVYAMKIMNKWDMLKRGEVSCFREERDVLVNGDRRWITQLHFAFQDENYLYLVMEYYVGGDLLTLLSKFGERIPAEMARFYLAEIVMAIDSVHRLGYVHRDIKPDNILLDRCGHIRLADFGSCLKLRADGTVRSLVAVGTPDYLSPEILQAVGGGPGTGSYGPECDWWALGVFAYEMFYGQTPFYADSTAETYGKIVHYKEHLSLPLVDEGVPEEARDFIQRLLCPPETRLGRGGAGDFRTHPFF
Put plainly: Caliper mobility shift kinase activity assay. It is filed as biochemical. As to conditions: DMPK CD; read-out: ATP Km.

The target in assay [3] is T3, PAK4 Catalytic Domain+PBD (Homo sapiens, UniProt O96013).
T3 construct: for 8, we also made a longer version containing one or more additional domains; His-tag; made in house; host or cells: Escherichia coli
Put plainly: Caliper mobility shift kinase activity assay. The class given is biochemical. As to conditions: PAK4 CD+PBD; read-out: ATP Km. Here is the method:
(§1) This ensures comparability of compound potency between the kinases. […] […].
(§2) […]. […] […].
(§3) IC50 was determined once for each compound-kinase combination.

For assay [4], the target named is T4, PAK4 Catalytic Domain (Homo sapiens, UniProt O96013).
T4 construct: For all of them, we expressed and purified the catalytic domain separately; His-tag; made in house; host or cells: Escherichia coli
Nature of the assay: Caliper mobility shift kinase activity assay. It is filed as biochemical. As to conditions: PAK4 CD; read-out: ATP Km. Here is the method: as §1, §2, §3

Assay [5] has as its target T5, FES Catalytic Domain (Homo sapiens, UniProt P07332).
T5 construct: For all of them, we expressed and purified the catalytic domain separately; His-tag; made in house; host or cells: Escherichia coli
Nature of the assay: Caliper mobility shift kinase activity assay. As to conditions: FES CD; read-out: ATP Km. The class given is biochemical.

Assay [6] has as its target T6, STK3 Catalytic Domain (Homo sapiens, UniProt Q13188).
T6 construct: For all of them, we expressed and purified the catalytic domain separately; His-tag; made in house; host or cells: Escherichia coli
T6 sequence (Q13188 27-278 limits assumed): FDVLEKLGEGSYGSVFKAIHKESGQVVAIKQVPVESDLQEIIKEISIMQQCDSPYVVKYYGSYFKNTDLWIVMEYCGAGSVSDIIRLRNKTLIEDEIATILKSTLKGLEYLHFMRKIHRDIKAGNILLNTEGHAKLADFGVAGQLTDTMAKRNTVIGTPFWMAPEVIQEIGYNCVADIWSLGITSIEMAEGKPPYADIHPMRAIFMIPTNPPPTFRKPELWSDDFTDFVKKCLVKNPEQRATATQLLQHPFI
Nature of the assay: Caliper mobility shift kinase activity assay. As to conditions: STK3 CD; read-out: ATP Km. It is filed as biochemical.

The target in assay [7] is T7, SRC Catalytic Domain (Homo sapiens, UniProt P12931). Conditions: read-out: ATP Km; SRC CD.
Assay [8] concerns the target T8, CDK2 + Cyclin A (Homo sapiens, UniProt P24941).
T8 construct: CDK2 (P24941); 1–299; His-tag; made in house; host or cells: Escherichia coli
Nature of the assay: Caliper mobility shift kinase activity assay. It is filed as biochemical. As to conditions: CDK2 with CCNA2 (Cyclin A); read-out: ATP Km.

Assay [9] concerns the target T9, CHK2 Catalytic Domain (Homo sapiens, UniProt O96017).
T9 construct: For all of them, we expressed and purified the catalytic domain separately; His-tag; made in house; host or cells: Escherichia coli
Put plainly: Caliper mobility shift kinase activity assay. The class given is biochemical. As to conditions: CHK2 CD; read-out: ATP Km.

Assay [10] concerns the target T10, CDK2 + Cyclin E (Homo sapiens, UniProt P24941).
T10 construct: CDK2 (P24941); 1–299; His-tag; made in house; host or cells: Escherichia coli
Put plainly: Caliper mobility shift kinase activity assay. It is filed as biochemical. As to conditions: CDK2 with CCNE1 (Cyclin E); read-out: ATP Km.

In assay [11] the target is T11, SRC Catalytic Domain+SH2+SH3 (Homo sapiens, UniProt P12931). As to conditions: read-out: ATP Km; SRC CD+SH2/3.
Assay [12] addresses T12, PAK7 Catalytic Domain (Homo sapiens, UniProt Q9P286).
T12 construct: For all of them, we expressed and purified the catalytic domain separately; His-tag; made in house; host or cells: Escherichia coli
Nature of the assay: Caliper mobility shift kinase activity assay. It is filed as biochemical. Conditions: PAK7 CD; read-out: ATP Km.

In assay [13] the target is T13, STK3 Catalytic domain+SARAH (Homo sapiens, UniProt Q13188).
T13 construct: for 8, we also made a longer version containing one or more additional domains; His-tag; made in house; host or cells: Escherichia coli
T13 sequence (Q13188 1-491): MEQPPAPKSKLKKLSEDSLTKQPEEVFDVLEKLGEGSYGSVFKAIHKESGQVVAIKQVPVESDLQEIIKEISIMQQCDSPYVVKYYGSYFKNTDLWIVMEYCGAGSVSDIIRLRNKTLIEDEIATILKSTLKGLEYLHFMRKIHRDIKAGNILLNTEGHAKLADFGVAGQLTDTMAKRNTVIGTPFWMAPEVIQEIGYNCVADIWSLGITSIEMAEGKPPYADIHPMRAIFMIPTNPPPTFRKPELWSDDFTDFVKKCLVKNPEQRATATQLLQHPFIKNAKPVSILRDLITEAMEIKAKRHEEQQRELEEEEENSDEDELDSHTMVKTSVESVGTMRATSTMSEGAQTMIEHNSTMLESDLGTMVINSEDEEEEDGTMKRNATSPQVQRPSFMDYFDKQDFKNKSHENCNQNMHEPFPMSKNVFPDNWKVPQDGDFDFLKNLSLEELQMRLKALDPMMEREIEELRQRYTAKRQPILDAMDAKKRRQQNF
Nature of the assay: Caliper mobility shift kinase activity assay. It is filed as biochemical. Conditions: STK3 CD+SARAH; read-out: ATP Km.

Assay [14] concerns the target T14, AKT3 Catalytic Domain (Homo sapiens, UniProt Q9Y243).
T14 construct: AKT3 (Q9Y243); CD; His-tag; made in house; host or cells: Escherichia coli
Put plainly: Caliper mobility shift kinase activity assay. The class given is biochemical. Conditions: AKT3 CD (122–479); read-out: ATP Km.

A further assay concerns the target T15, FAK2 Catalytic Domain (Homo sapiens, UniProt Q14289).
T15 construct: For all of them, we expressed and purified the catalytic domain separately; His-tag; made in house; host or cells: Escherichia coli
Put plainly: Differential Scanning Fluorimetry (DSF) Tm shift. The class given is binding. As to conditions: 2 µM protein, 10 µM inhibitor, average of 3 experiments, each in duplicate.

Assay [15] addresses T9, CHK2 Catalytic Domain. Nature of the assay: Differential Scanning Fluorimetry (DSF) Tm shift. It is filed as binding. As to conditions: 2 µM protein, 10 µM inhibitor, average of 3 experiments, each in duplicate.
Assay [16] has as its target T2, DMPK Catalytic Domain. Nature of the assay: Differential Scanning Fluorimetry (DSF) Tm shift. Conditions: 2 µM protein, 10 µM inhibitor, average of 3 experiments, each in duplicate. It is filed as binding.
The target of assay [17] is T3, PAK4 Catalytic Domain+PBD. Put plainly: Differential Scanning Fluorimetry (DSF) Tm shift. The class given is binding. As to conditions: 2 µM protein, 10 µM inhibitor, average of 3 experiments, each in duplicate.
In assay [18] the target is T1, FES Catalytic Domain+SH2. Put plainly: Differential Scanning Fluorimetry (DSF) Tm shift. The class given is binding. As to conditions: 2 µM protein, 10 µM inhibitor, average of 3 experiments, each in duplicate.
Assay [19] addresses T11, SRC Catalytic Domain+SH2+SH3. Put plainly: Differential Scanning Fluorimetry (DSF) Tm shift. The class given is binding. Conditions: 2 µM protein, 10 µM inhibitor, average of 3 experiments, each in duplicate.
Assay [20] concerns the target T14, AKT3 Catalytic Domain. Put plainly: Differential Scanning Fluorimetry (DSF) Tm shift. It is filed as binding. Conditions: 2 µM protein, 10 µM inhibitor, average of 3 experiments, each in duplicate.
Assay [21] addresses T6, STK3 Catalytic Domain. Put plainly: Differential Scanning Fluorimetry (DSF) Tm shift. It is filed as binding. Conditions: 2 µM protein, 10 µM inhibitor, average of 3 experiments, each in duplicate.
Assay [22] concerns the target T10, CDK2 + Cyclin E. Nature of the assay: Differential Scanning Fluorimetry (DSF) Tm shift. Conditions: CDK2 + Cyclin E; 2 µM protein, 10 µM inhibitor; average of 3 experiments, each in duplicate. The class given is binding.
In assay [23] the target is T12, PAK7 Catalytic Domain. Nature of the assay: Differential Scanning Fluorimetry (DSF) Tm shift. It is filed as binding. Conditions: 2 µM protein, 10 µM inhibitor, average of 3 experiments, each in duplicate.
For assay [24], the target named is T8, CDK2 + Cyclin A. Nature of the assay: Differential Scanning Fluorimetry (DSF) Tm shift. Conditions: CDK2 + Cyclin A; 2 µM protein, 10 µM inhibitor; average of 3 experiments, each in duplicate. It is filed as binding.
Assay [25] has as its target T13, STK3 Catalytic domain+SARAH. Nature of the assay: Differential Scanning Fluorimetry (DSF) Tm shift. As to conditions: 2 µM protein, 10 µM inhibitor, average of 3 experiments, each in duplicate. The class given is binding.
Assay [26] has as its target T7, SRC Catalytic Domain. Nature of the assay: Differential Scanning Fluorimetry (DSF) Tm shift. The class given is binding. Also noted: For all of them, we expressed and purified the catalytic domain separately; His-tag; made in house; host or cells: Escherichia coli. As to conditions: 2 µM protein, 10 µM inhibitor, average of 3 experiments, each in duplicate.
Assay [27] addresses T5, FES Catalytic Domain. Nature of the assay: Differential Scanning Fluorimetry (DSF) Tm shift. The class given is binding. Conditions: 2 µM protein, 10 µM inhibitor, average of 3 experiments, each in duplicate.
Assay [28] has as its target T4, PAK4 Catalytic Domain. Nature of the assay: Differential Scanning Fluorimetry (DSF) Tm shift. It is filed as binding. Conditions: 2 µM protein, 10 µM inhibitor, average of 3 experiments, each in duplicate.

T12 sequence (Q9P286 449-700 limits assumed): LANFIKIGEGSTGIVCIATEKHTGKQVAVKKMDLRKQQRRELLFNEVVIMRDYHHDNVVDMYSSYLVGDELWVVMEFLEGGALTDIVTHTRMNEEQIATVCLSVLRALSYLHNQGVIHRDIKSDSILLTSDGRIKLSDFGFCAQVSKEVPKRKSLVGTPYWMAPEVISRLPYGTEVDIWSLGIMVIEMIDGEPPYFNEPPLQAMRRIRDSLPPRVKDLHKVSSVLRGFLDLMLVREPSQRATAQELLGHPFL
T1 sequence (P07332 448-822 limits assumed): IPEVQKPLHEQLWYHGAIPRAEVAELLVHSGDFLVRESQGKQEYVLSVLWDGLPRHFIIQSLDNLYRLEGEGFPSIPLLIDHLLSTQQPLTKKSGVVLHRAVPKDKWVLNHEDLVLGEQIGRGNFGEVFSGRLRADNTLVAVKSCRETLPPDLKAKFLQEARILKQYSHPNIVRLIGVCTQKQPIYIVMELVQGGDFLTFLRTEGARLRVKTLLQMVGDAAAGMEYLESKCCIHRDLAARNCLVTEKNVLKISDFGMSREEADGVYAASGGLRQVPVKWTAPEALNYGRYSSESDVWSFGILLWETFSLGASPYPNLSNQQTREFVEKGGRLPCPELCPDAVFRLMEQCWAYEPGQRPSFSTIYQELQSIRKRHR
T5 sequence (P07332 561-822 limits assumed): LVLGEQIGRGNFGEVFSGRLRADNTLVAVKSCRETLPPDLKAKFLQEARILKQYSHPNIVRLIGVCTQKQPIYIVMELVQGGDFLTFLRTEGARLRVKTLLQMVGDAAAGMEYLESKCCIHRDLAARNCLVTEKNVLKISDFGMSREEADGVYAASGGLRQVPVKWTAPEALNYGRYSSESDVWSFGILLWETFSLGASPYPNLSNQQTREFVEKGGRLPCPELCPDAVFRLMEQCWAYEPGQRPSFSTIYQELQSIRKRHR
T4 sequence (O96013 321-572 limits assumed): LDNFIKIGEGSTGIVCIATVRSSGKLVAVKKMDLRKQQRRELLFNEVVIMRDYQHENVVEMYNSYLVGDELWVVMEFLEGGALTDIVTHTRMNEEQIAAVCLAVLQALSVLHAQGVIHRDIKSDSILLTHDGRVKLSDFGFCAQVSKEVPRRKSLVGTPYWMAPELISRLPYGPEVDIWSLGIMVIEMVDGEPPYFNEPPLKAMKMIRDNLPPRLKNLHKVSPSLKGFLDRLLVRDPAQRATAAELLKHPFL
T14 sequence (Q9Y243 122-479): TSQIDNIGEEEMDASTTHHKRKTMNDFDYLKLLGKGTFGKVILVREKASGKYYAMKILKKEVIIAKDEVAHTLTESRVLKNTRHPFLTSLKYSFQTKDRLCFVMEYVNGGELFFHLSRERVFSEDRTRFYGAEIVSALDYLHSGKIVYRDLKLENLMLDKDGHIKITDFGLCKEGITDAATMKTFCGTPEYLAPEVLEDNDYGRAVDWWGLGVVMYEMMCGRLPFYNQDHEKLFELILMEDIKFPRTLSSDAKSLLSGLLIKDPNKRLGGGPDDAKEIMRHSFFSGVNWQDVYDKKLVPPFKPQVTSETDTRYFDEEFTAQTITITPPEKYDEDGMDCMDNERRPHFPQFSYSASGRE
T3 sequence (O96013 whole entry, the tested form may be a part): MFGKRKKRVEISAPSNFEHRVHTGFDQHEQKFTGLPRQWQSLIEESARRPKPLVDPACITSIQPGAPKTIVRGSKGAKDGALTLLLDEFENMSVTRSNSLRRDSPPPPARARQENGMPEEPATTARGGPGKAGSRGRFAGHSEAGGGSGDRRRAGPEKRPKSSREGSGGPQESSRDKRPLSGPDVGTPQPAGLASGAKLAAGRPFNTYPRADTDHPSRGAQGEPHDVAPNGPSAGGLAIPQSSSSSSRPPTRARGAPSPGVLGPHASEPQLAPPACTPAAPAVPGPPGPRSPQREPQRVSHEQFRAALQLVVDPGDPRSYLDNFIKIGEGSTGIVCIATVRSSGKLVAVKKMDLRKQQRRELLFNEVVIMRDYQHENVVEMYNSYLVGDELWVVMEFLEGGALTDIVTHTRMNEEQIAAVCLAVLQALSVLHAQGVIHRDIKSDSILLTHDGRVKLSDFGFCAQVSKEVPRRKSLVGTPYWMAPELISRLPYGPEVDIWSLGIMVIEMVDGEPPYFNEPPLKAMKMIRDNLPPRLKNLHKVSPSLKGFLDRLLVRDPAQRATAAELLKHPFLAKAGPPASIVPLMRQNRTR
T9 sequence (O96017 220-486 limits assumed): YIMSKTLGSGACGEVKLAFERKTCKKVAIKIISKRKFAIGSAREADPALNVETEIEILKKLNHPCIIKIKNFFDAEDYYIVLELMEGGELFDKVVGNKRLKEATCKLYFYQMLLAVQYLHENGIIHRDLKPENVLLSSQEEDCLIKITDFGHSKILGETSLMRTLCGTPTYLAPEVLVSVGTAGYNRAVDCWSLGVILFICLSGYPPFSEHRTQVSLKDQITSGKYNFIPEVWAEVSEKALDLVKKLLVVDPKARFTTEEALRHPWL
T15 sequence (Q14289 425-683 limits assumed): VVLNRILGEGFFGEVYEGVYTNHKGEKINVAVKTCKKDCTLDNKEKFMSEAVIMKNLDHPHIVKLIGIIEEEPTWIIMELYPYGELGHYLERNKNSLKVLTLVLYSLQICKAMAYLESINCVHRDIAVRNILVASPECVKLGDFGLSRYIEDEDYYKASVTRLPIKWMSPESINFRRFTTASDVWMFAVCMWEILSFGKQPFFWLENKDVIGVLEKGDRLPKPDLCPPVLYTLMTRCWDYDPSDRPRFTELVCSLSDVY

Regarding `Nc1ncnc2c1ncn2[C@@H]1O[C@H](COP(=O)(O)OP(=O)(O)OP(=O)(O)O)[C@@H](O)[C@H]1O` [ATP], the Michaelis-Menten constant (Km) was found to be 53 ± 13 µM on FES Catalytic Domain+SH2 [1]; 470 ± 69 µM at DMPK Catalytic Domain [2]; 11 ± 1 µM in assay [3]; 11 ± 1 µM at PAK4 Catalytic Domain [4]; 49 ± 11 µM on FES Catalytic Domain [5]; 140 ± 12 µM at STK3 Catalytic Domain [6]. Moreover, the Michaelis-Menten constant (Km) was found to be 134 ± 16 µM on SRC Catalytic Domain [7]; 238 ± 12 µM on CDK2 + Cyclin A [8]; 130 ± 13 µM on CHK2 Catalytic Domain [9]; 145 ± 4 µM on CDK2 + Cyclin E [10]; 226 ± 33 µM in assay [11]; 5 ± 0.4 µM on PAK7 Catalytic Domain [12]. Besides, the Km in assay [13] was determined as 66 ± 2 µM; at AKT3 Catalytic Domain [14], 564 ± 36 µM.
As to Wee1/Chk1 Inhibitor, the “Melting temperature (Tm) shift” value at FAK2 Catalytic Domain is recorded as 0.3 degrees Celcius; on CHK2 Catalytic Domain [15], 5.9 degrees Celcius; on DMPK Catalytic Domain [16], 2.2 degrees Celcius; in [17] it was 1.5 degrees Celcius; at FES Catalytic Domain+SH2 [18] it was 0.2 degrees Celcius; in [19], 0.1 degrees Celcius. Moreover, the “Melting temperature (Tm) shift” value on AKT3 Catalytic Domain [20] is 0.1 degrees Celcius; on STK3 Catalytic Domain [21], 1.1 degrees Celcius; at CDK2 + Cyclin E [22], 0.8 degrees Celcius; on PAK7 Catalytic Domain [23] it was 1.0 degrees Celcius; on CDK2 + Cyclin A [24] it was 0.2 degrees Celcius; in assay [25] it was 3.7 degrees Celcius. Further, the “Melting temperature (Tm) shift” value at SRC Catalytic Domain [26] is reported as 0.1 degrees Celcius; at FES Catalytic Domain [27], 0.2 degrees Celcius; at PAK4 Catalytic Domain [28], 0.7 degrees Celcius.
